{"source": "paper PMC11678869", "about": "“Functional Role of Odorant-Binding Proteins in Response to Sex Pheromone Component Z8-14:Ac in Grapholita molesta (Busck)” (Insects, 2024)", "tested_on": "PFM males", "test": "Field trapping with delta traps, peach orchard", "type": "in vivo, Grapholita funebrana", "description": "To determine the inhibitory effects on OFM male adults and the impact on the trapping effects of PFM male adults, varying amounts of Z8-14:Ac (0, 5, 10, 25, 50, 75, 100, 125, 150 μg) or Z10-14:Ac (0, 25, 50, 100, 150, 250, 350, 450, and 550 μg) were added to rubber septa loaded with a constant dosage of the main pheromone (500 μg of Z8-12:Ac and 20 μg of E8-12:Ac) of the PFM. Trapping experiments of Z8-14:Ac were carried out in peach and pear orchards in Yan’an and Xinjiang (China), respectively. Trapping tests of Z10-14:Ac were performed in pear orchards in Xinjiang (China). Each orchard had nine plots, with three plots in one field. Each plot consisted of a linear arrangement of traps loaded with a constant dosage of the main pheromones and different percentages of the secondary pheromone Z8-14:Ac or Z10-14:Ac of the PFM. Plots in the same field were placed 30 m apart, and fields were ≥1 km apart. The traps were hung 1.4 m from the ground on a suspension bracket between two rows of peach or pear trees from 10 June to 25 July 2021 in Xinjiang and from 15 June to 30 July 2021 in Yan’an. The positions of the traps within the plot were randomly arranged. Every 5 days, counts were taken, and the traps were rotated to the adjacent position to avoid any potential position effects. The septa loaded with sex pheromone components were replaced with new ones after every 15 days of suspension. The data were analyzed using a one-way ANOVA, and the differences in the average trapping of OFM and PFM males using sex attractants containing different amounts of Z8-14:Ac or Z10-14:Ac were further analyzed using Tukey’s HSD test, both of which were performed using SPSS 23.0."}
{"smiles": "CCCCC/C=C\\CCCCCCCOC(C)=O", "note": "[Z8-14:Ac, (Z)-8-tetradecenyl acetate]", "values": [{"measurement": "Total PFM Males/Trap", "setting": "Z8-12:Ac/E8-12:Ac/Z8-14:Ac 500/20/5 μg (100:4:1)", "result": "387.73 ± 18.31", "unit": "a Males/Trap"}, {"measurement": "Total PFM Males/Trap", "setting": "Z8-12:Ac/E8-12:Ac/Z8-14:Ac 500/20/10 μg (100:4:2)", "result": "287.22 ± 7.96", "unit": "a Males/Trap"}, {"measurement": "Total PFM Males/Trap", "setting": "Z8-12:Ac/E8-12:Ac/Z8-14:Ac 500/20/25 μg (100:4:5)", "result": "314.53 ± 26.14", "unit": "a Males/Trap"}, {"measurement": "Total PFM Males/Trap", "setting": "Z8-12:Ac/E8-12:Ac/Z8-14:Ac 500/20/50 μg (100:4:10)", "result": "331.58 ± 17.46", "unit": "a Males/Trap"}, {"measurement": "Total PFM Males/Trap", "setting": "Z8-12:Ac/E8-12:Ac/Z8-14:Ac 500/20/75 μg (100:4:15)", "result": "297.81 ± 4.75", "unit": "a Males/Trap"}, {"measurement": "Total PFM Males/Trap", "setting": "Z8-12:Ac/E8-12:Ac/Z8-14:Ac 500/20/100 μg (100:4:20)", "result": "285.62 ± 6.55", "unit": "a Males/Trap"}, {"measurement": "Total PFM Males/Trap", "setting": "Z8-12:Ac/E8-12:Ac/Z8-14:Ac 500/20/125 μg (100:4:25)", "result": "352.89 ± 32.42", "unit": "a Males/Trap"}, {"measurement": "Total PFM Males/Trap", "setting": "Z8-12:Ac/E8-12:Ac/Z8-14:Ac 500/20/150 μg (100:4:30)", "result": "348.30 ± 22.77", "unit": "a Males/Trap"}, {"measurement": "effect on the number of PFM males", "setting": "adding 1–30% of Z8-14:Ac to the PFM sex attractants", "result": "neither significantly increased nor inhibited"}]}
